Experimental data as given in ChEMBL document CHEMBL1201862, “PubChem BioAssay data set” (2004).
Counter-ions that a name gives are not always drawn.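 48-hour exposure; five concentrations; linearly interpolated endpoints. At the GI50, growth is halved.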 The source made the active and inactive calls. No stated cut-off is given here; in the data, active = GI50 up to about 1.1 µM and inactive = higher.

Tests used:
Experiment in all cases: NCI tumour cell line growth inhibition, 48 h
MDA-N = tested on: MDA-N
SN12C = tested on: SN12C
SF-539 = tested on: SF-539
NCI-H460 = tested on: NCI-H460
HT-29 = tested on: HT-29
UO-31 = tested on: UO-31
A498 = tested on: A498
MOLT-4 = tested on: MOLT-4
EKVX = tested on: EKVX
U-251 = tested on: U-251
PC-3 = tested on: PC-3
RXF 393 = tested on: RXF 393
KM12 = tested on: KM12
NCI-H226 = tested on: NCI-H226
HCT-116 = tested on: HCT-116
OVCAR-8 = tested on: OVCAR-8
NCI-H522 = tested on: NCI-H522
SW-620 = tested on: SW-620
SK-OV-3 = tested on: SK-OV-3
Hs-578T = tested on: Hs-578T

Measured: GI50

Cc1nn(-c2ccccc2)c2nc3c(c(C)nn3-c3ccccc3)c(-c3ccccc3Br)c12
inactive: MDA-N > 100 µM | SN12C > 100 µM | SF-539 > 100 µM | NCI-H460 > 100 µM | HT-29 > 100 µM | UO-31 59.4 µM | A498 > 100 µM | MOLT-4 > 100 µM | EKVX > 100 µM | U-251 > 100 µM | PC-3 > 100 µM | RXF 393 > 100 µM | KM12 > 100 µM | NCI-H226 > 100 µM | HCT-116 > 100 µM | OVCAR-8 > 100 µM | NCI-H522 > 100 µM | SW-620 > 100 µM | SK-OV-3 > 100 µM

CCOC(=O)C1=C(OC(OCC)C(CC)[Se]c2ccccc2)CCC1 (stereo not drawn)
inactive: SN12C 17.1 µM | SF-539 19.8 µM | NCI-H460 39.7 µM | HT-29 25.1 µM | UO-31 28.9 µM | A498 41.2 µM | MOLT-4 20.1 µM | EKVX 29.2 µM | U-251 11.4 µM | RXF 393 19.5 µM | KM12 39.4 µM | NCI-H226 18.3 µM | HCT-116 20.4 µM | OVCAR-8 33.2 µM | NCI-H522 15.6 µM | SK-OV-3 92 µM

N#Cc1c(-c2ccccc2)cc(-c2ccc(N)cc2)[nH]c1=O
inactive: SN12C > 100 µM | SF-539 > 100 µM | NCI-H460 > 100 µM | HT-29 > 100 µM | UO-31 > 100 µM | A498 > 100 µM | MOLT-4 > 100 µM | EKVX > 100 µM | U-251 > 100 µM | RXF 393 > 100 µM | KM12 > 100 µM | NCI-H226 > 100 µM | HCT-116 > 100 µM | OVCAR-8 > 100 µM | NCI-H522 > 100 µM | SW-620 > 100 µM | SK-OV-3 > 100 µM

O=C1CC[C@H]2CNC(=O)C[C@H]2C1
inactive: SN12C > 100 µM | SF-539 > 100 µM | NCI-H460 > 100 µM | HT-29 > 100 µM | UO-31 > 100 µM | A498 > 100 µM | MOLT-4 > 100 µM | EKVX > 100 µM | U-251 > 100 µM | RXF 393 > 100 µM | KM12 > 100 µM | HCT-116 > 100 µM | OVCAR-8 > 100 µM | NCI-H522 > 100 µM | SW-620 > 100 µM | SK-OV-3 > 100 µM

Cc1cc2nc3c(C#N)c(-c4ccccc4)cc(Nc4cccc(C(F)(F)F)c4)n3c2cc1C
inactive: MDA-N 4.04 µM | SN12C 3.68 µM | SF-539 3.78 µM | NCI-H460 3.33 µM | UO-31 5.08 µM | A498 6.05 µM | EKVX 4.68 µM | PC-3 2.56 µM | RXF 393 5.48 µM | KM12 4.07 µM | NCI-H226 3.86 µM | HCT-116 2.7 µM | OVCAR-8 4.14 µM | NCI-H522 4.49 µM | SW-620 3.74 µM | SK-OV-3 6.1 µM

NCCc1cc(O)c(O)cc1O [OXIDOPAMINE HYDROCHLORIDE]
inactive: MDA-N 22.6 µM | SN12C 25.3 µM | SF-539 19.2 µM | NCI-H460 29.2 µM | HT-29 32.3 µM | UO-31 25.2 µM | A498 > 100 µM | MOLT-4 21.8 µM | EKVX 26.6 µM | PC-3 33.1 µM | RXF 393 51.4 µM | KM12 17.5 µM | HCT-116 18.7 µM | OVCAR-8 32.4 µM | SW-620 21 µM | SK-OV-3 > 100 µM

CN1OC(CO)CC12C1CC3CC(C1)CC2C3 (stereo not drawn)
inactive: SN12C > 100 µM | SF-539 > 100 µM | NCI-H460 > 100 µM | HT-29 > 100 µM | UO-31 > 100 µM | A498 > 100 µM | MOLT-4 > 100 µM | U-251 > 100 µM | RXF 393 > 100 µM | KM12 > 100 µM | HCT-116 > 100 µM | OVCAR-8 > 100 µM | NCI-H522 > 100 µM | SW-620 > 100 µM | SK-OV-3 > 100 µM

Nn1c(CCCCCCCCc2nnc(COc3ccc(Cl)cc3)n2N)nnc1COc1ccc(Cl)cc1
inactive: SN12C > 100 µM | NCI-H460 > 100 µM | HT-29 > 100 µM | UO-31 25.4 µM | A498 95.1 µM | MOLT-4 49.5 µM | EKVX > 100 µM | U-251 > 100 µM | PC-3 68.2 µM | RXF 393 > 100 µM | KM12 > 100 µM | NCI-H226 > 100 µM | HCT-116 74.5 µM | NCI-H522 81.1 µM | SW-620 > 100 µM | SK-OV-3 > 100 µM

Cc1cc(CNC(=O)OCc2ccccc2)c(C)c2c1Oc1ccccc1O2
inactive: SN12C 24.3 µM | NCI-H460 > 100 µM | HT-29 20.2 µM | UO-31 28.6 µM | A498 23 µM | MOLT-4 > 100 µM | EKVX 42.9 µM | U-251 18.8 µM | PC-3 43.4 µM | RXF 393 12.7 µM | KM12 43.6 µM | NCI-H226 26.5 µM | HCT-116 36.6 µM | OVCAR-8 17.1 µM | NCI-H522 13.9 µM | SW-620 > 100 µM | SK-OV-3 17.1 µM | Hs-578T 19.7 µM

C/C(=N\NC(=S)NC(CCC(=O)O)C(=O)O)c1cnccn1 (stereo not drawn)
inactive: SN12C > 100 µM | SF-539 > 100 µM | NCI-H460 > 100 µM | HT-29 > 100 µM | UO-31 > 100 µM | A498 > 100 µM | MOLT-4 > 100 µM | EKVX > 100 µM | U-251 > 100 µM | RXF 393 > 100 µM | KM12 > 100 µM | NCI-H226 > 100 µM | HCT-116 > 100 µM | OVCAR-8 > 100 µM | NCI-H522 > 100 µM | SW-620 > 100 µM | SK-OV-3 > 100 µM

O=C1c2ccccc2OP(=O)(OCC(F)(F)F)OC1(C(F)(F)F)C(F)(F)F (stereo not drawn)
inactive: SN12C > 100 µM | SF-539 > 100 µM | NCI-H460 > 100 µM | HT-29 > 100 µM | UO-31 45.3 µM | A498 > 100 µM | MOLT-4 > 100 µM | EKVX > 100 µM | U-251 > 100 µM | RXF 393 > 100 µM | KM12 > 100 µM | NCI-H226 > 100 µM | HCT-116 > 100 µM | OVCAR-8 > 100 µM | NCI-H522 > 100 µM | SW-620 > 100 µM | SK-OV-3 > 100 µM

COc1ccc(C(C#N)Cc2cc(OC)c(OC)c(OC)c2)cc1 (stereo not drawn)
inactive: SN12C 41.3 µM | SF-539 23.4 µM | NCI-H460 12.1 µM | HT-29 33 µM | UO-31 30.8 µM | A498 17.4 µM | MOLT-4 28.2 µM | EKVX 40.7 µM | U-251 29.6 µM | RXF 393 16.4 µM | KM12 24 µM | NCI-H226 94.2 µM | HCT-116 39.9 µM | OVCAR-8 37 µM | NCI-H522 22.4 µM | SW-620 15.7 µM

Cc1ccc(S(=O)(=O)N/N=C(\CCN2CCCC2)CC(c2ccccc2)c2c(O)c3ccccc3oc2=O)cc1 (stereo not drawn)
inactive: SN12C > 100 µM | SF-539 > 100 µM | NCI-H460 > 100 µM | HT-29 > 100 µM | UO-31 > 100 µM | A498 > 100 µM | EKVX > 100 µM | U-251 > 100 µM | RXF 393 > 100 µM | KM12 > 100 µM | NCI-H226 > 100 µM | HCT-116 > 100 µM | OVCAR-8 > 100 µM | NCI-H522 99.5 µM | SW-620 49.5 µM | SK-OV-3 > 100 µM

Cc1ccc(-c2c(C#N)c(-c3ccccc3)n(NS(=O)(=O)c3ccc(C)cc3)c(=O)c2C#N)cc1
inactive: MDA-N 71.8 µM | SN12C 82.6 µM | SF-539 34 µM | NCI-H460 34.3 µM | HT-29 69.2 µM | A498 52.8 µM | MOLT-4 19.8 µM | EKVX 89.9 µM | U-251 49.5 µM | PC-3 36.6 µM | RXF 393 51.5 µM | KM12 27.4 µM | NCI-H226 74.3 µM | HCT-116 35.1 µM | OVCAR-8 41.9 µM | NCI-H522 39.2 µM | SW-620 40.6 µM | SK-OV-3 96.6 µM

S=c1oc(CCCCCCCCc2nn(CNc3ccccc3)c(=S)o2)nn1CNc1ccccc1
inactive: SN12C > 100 µM | NCI-H460 > 100 µM | HT-29 > 100 µM | UO-31 > 100 µM | A498 > 100 µM | MOLT-4 > 100 µM | EKVX > 100 µM | U-251 > 100 µM | PC-3 > 100 µM | KM12 > 100 µM | NCI-H226 > 100 µM | HCT-116 > 100 µM | NCI-H522 > 100 µM | SW-620 > 100 µM | SK-OV-3 > 100 µM

O=C1NC(=O)C2C(=O)NC(=O)C1C2(c1ccccc1)c1cc[nH]c1 (stereo not drawn)
inactive: SN12C > 100 µM | SF-539 > 100 µM | NCI-H460 > 100 µM | HT-29 > 100 µM | UO-31 74.6 µM | A498 > 100 µM | MOLT-4 > 100 µM | EKVX > 100 µM | RXF 393 > 100 µM | KM12 > 100 µM | NCI-H226 > 100 µM | OVCAR-8 > 100 µM | NCI-H522 > 100 µM | SW-620 > 100 µM | SK-OV-3 > 100 µM
